Converted amounts (≈) assume the structure as drawn.

The first test has as its system NIH3T3. As to the kind of experiment: Cytotoxicity against mouse NIH/3T3 cells after 24 hrs by MTT assay. The conditions noted are these: NIH3T3, 24 h. It counts as cell-based. Background: Formazan colour is commonly taken as a measure of viable cells.
In general, IC50 refers to the concentration that gives 50% inhibition. For the molecule `O=C(CSc1nnnn1-c1ccccc1)N/N=c1/scc(-c2ccc([N+](=O)[O-])cc2)n1-c1ccccc1`, the IC50 is 14.3 µg/mL (≈ 27 µM).
The same measure, in the same setting: in the case of `COc1ccc(-c2cs/c(=N/NC(=O)CSc3nnnn3-c3ccccc3)n2-c2ccccc2)cc1` it was 11.7 µg/mL (≈ 22.7 µM).
`COc1ccc(-c2cs/c(=N/NC(=O)CSc3nnnn3C)n2-c2ccccc2)cc1` registered an IC50 of 45 µg/mL (≈ 99.2 µM).
Same read-out and setting: in the case of `Cn1nnnc1SCC(=O)N/N=c1/scc(-c2ccc(F)cc2)n1-c1ccccc1` it was 113 µg/mL (≈ 257 µM).

The subject of another test is Candida albicans. As to the kind of experiment: Antimicrobial activity against Candida albicans ATCC 22019 after 18 to 24 hrs by microbroth dilution method. Type of test: functional.
Details: not given
A general note: In broth dilution the organism is exposed to a series of concentrations in liquid medium.
For orientation: MIC means the smallest concentration in the dilution series that meets the test's criterion for growth inhibition. Turning to `O=C(CSc1nnnn1-c1ccccc1)N/N=c1/scc(-c2ccc([N+](=O)[O-])cc2)n1-c1ccccc1`, 250 µg/mL (≈ 471 µM) was the least that counted as inhibitory (MIC).
Same read-out and setting: in the case of `COc1ccc(-c2cs/c(=N/NC(=O)CSc3nnnn3-c3ccccc3)n2-c2ccccc2)cc1` it was 250 µg/mL (≈ 485 µM).
In turn, `COc1ccc(-c2cs/c(=N/NC(=O)CSc3nnnn3C)n2-c2ccccc2)cc1` came in with an MIC of 250 µg/mL (≈ 551 µM).
The same measure, in the same setting: in the case of `Cn1nnnc1SCC(=O)N/N=c1/scc(-c2ccc(F)cc2)n1-c1ccccc1` it was 250 µg/mL (≈ 566 µM).

The subject of the next test is Fusarium culmorum. In words: Antimicrobial activity against wild type Fusarium culmorum after 48 to 72 hrs by microbroth dilution method.
Details: not given
It counts as functional.
`O=C(CSc1nnnn1-c1ccccc1)N/N=c1/scc(-c2ccc([N+](=O)[O-])cc2)n1-c1ccccc1`: the MIC was determined as 250 µg/mL (≈ 471 µM).
`COc1ccc(-c2cs/c(=N/NC(=O)CSc3nnnn3-c3ccccc3)n2-c2ccccc2)cc1`: the MIC was determined as 125 µg/mL (≈ 242 µM).
Still for that read-out and setting: in the case of `COc1ccc(-c2cs/c(=N/NC(=O)CSc3nnnn3C)n2-c2ccccc2)cc1` it was 250 µg/mL (≈ 551 µM); in that of `Cn1nnnc1SCC(=O)N/N=c1/scc(-c2ccc(F)cc2)n1-c1ccccc1`, 250 µg/mL (≈ 566 µM).

For the next test, the system named is Fusarium verticillioides. As to the kind of experiment: Antimicrobial activity against Fusarium moniliforme NRRL 1866 after 48 to 72 hrs by microbroth dilution method. It counts as functional.
Details: not given
For `O=C(CSc1nnnn1-c1ccccc1)N/N=c1/scc(-c2ccc([N+](=O)[O-])cc2)n1-c1ccccc1`, inhibition of growth (MIC) required 250 µg/mL (≈ 471 µM).
On the same count and under the same terms, in the case of `COc1ccc(-c2cs/c(=N/NC(=O)CSc3nnnn3-c3ccccc3)n2-c2ccccc2)cc1` it was 250 µg/mL (≈ 485 µM).
`COc1ccc(-c2cs/c(=N/NC(=O)CSc3nnnn3C)n2-c2ccccc2)cc1` displayed an MIC of 250 µg/mL (≈ 551 µM).
Still for that read-out and setting: in the case of `Cn1nnnc1SCC(=O)N/N=c1/scc(-c2ccc(F)cc2)n1-c1ccccc1` it was 250 µg/mL (≈ 566 µM).

For another test, the system named is Fusarium solani. In words: Antimicrobial activity against Fusarium solani NRRL 13414 after 48 to 72 hrs by microbroth dilution method. It counts as functional.
Details: not given
In turn, `O=C(CSc1nnnn1-c1ccccc1)N/N=c1/scc(-c2ccc([N+](=O)[O-])cc2)n1-c1ccccc1` had an MIC of 250 µg/mL (≈ 471 µM).
Same read-out and setting: in the case of `COc1ccc(-c2cs/c(=N/NC(=O)CSc3nnnn3-c3ccccc3)n2-c2ccccc2)cc1` it was 250 µg/mL (≈ 485 µM); in that of `COc1ccc(-c2cs/c(=N/NC(=O)CSc3nnnn3C)n2-c2ccccc2)cc1`, 250 µg/mL (≈ 551 µM).
In the case of `Cn1nnnc1SCC(=O)N/N=c1/scc(-c2ccc(F)cc2)n1-c1ccccc1`, the MIC amounted to 250 µg/mL (≈ 566 µM).

In the next test the test system is Aspergillus ochraceus. In words: Antimicrobial activity against Aspergillus ochraceus NRRL 3174 after 48 to 72 hrs by microbroth dilution method.
Details: not given
Type of test: functional.
For `O=C(CSc1nnnn1-c1ccccc1)N/N=c1/scc(-c2ccc([N+](=O)[O-])cc2)n1-c1ccccc1`, the lowest concentration to inhibit growth (MIC) was 250 µg/mL (≈ 471 µM).
In turn, `COc1ccc(-c2cs/c(=N/NC(=O)CSc3nnnn3-c3ccccc3)n2-c2ccccc2)cc1` showed an MIC of 250 µg/mL (≈ 485 µM).
On the same count and under the same terms, in the case of `COc1ccc(-c2cs/c(=N/NC(=O)CSc3nnnn3C)n2-c2ccccc2)cc1` it was 250 µg/mL (≈ 551 µM); in that of `Cn1nnnc1SCC(=O)N/N=c1/scc(-c2ccc(F)cc2)n1-c1ccccc1`, 250 µg/mL (≈ 566 µM).

The test system of the next test is Trichoderma harzianum. As to the kind of experiment: Antimicrobial activity against Trichoderma harzianum NRRL 20565 after 48 to 72 hrs by microbroth dilution method. It counts as functional.
Details: not given
Molecule `O=C(CSc1nnnn1-c1ccccc1)N/N=c1/scc(-c2ccc([N+](=O)[O-])cc2)n1-c1ccccc1` had an MIC of 125 µg/mL (≈ 236 µM).
Still for that read-out and setting: then `COc1ccc(-c2cs/c(=N/NC(=O)CSc3nnnn3-c3ccccc3)n2-c2ccccc2)cc1`, with 125 µg/mL (≈ 242 µM); and `COc1ccc(-c2cs/c(=N/NC(=O)CSc3nnnn3C)n2-c2ccccc2)cc1`, with 250 µg/mL (≈ 551 µM).
`Cn1nnnc1SCC(=O)N/N=c1/scc(-c2ccc(F)cc2)n1-c1ccccc1` had an MIC of 250 µg/mL (≈ 566 µM).

The test system of a further test is Penicillium chrysogenum. As to the kind of experiment: Antimicrobial activity against Penicillium chrysogenum NRRL 1951 after 48 to 72 hrs by microbroth dilution method. Type of test: functional.
Details: not given
For `O=C(CSc1nnnn1-c1ccccc1)N/N=c1/scc(-c2ccc([N+](=O)[O-])cc2)n1-c1ccccc1`, it took 250 µg/mL (≈ 471 µM) to inhibit growth (MIC).
Still for that read-out and setting: then `COc1ccc(-c2cs/c(=N/NC(=O)CSc3nnnn3-c3ccccc3)n2-c2ccccc2)cc1`, with 250 µg/mL (≈ 485 µM).
On the same count and under the same terms, in the case of `COc1ccc(-c2cs/c(=N/NC(=O)CSc3nnnn3C)n2-c2ccccc2)cc1` it was 250 µg/mL (≈ 551 µM); in that of `Cn1nnnc1SCC(=O)N/N=c1/scc(-c2ccc(F)cc2)n1-c1ccccc1`, 250 µg/mL (≈ 566 µM).

Another test has as its system Aspergillus parasiticus. As to the kind of experiment: Antimicrobial activity against Aspergillus parasiticus NRRL 465 after 48 to 72 hrs by microbroth dilution method.
Details: not given
It counts as functional.
The molecule `O=C(CSc1nnnn1-c1ccccc1)N/N=c1/scc(-c2ccc([N+](=O)[O-])cc2)n1-c1ccccc1` yielded an MIC of 250 µg/mL (≈ 471 µM).
Regarding `COc1ccc(-c2cs/c(=N/NC(=O)CSc3nnnn3-c3ccccc3)n2-c2ccccc2)cc1`, the MIC is 250 µg/mL (≈ 485 µM).
Same read-out and setting: then `COc1ccc(-c2cs/c(=N/NC(=O)CSc3nnnn3C)n2-c2ccccc2)cc1`, with 250 µg/mL (≈ 551 µM); and `Cn1nnnc1SCC(=O)N/N=c1/scc(-c2ccc(F)cc2)n1-c1ccccc1`, with 250 µg/mL (≈ 566 µM).

The test system of the next test is Bacillus subtilis. As to the kind of experiment: Antimicrobial activity against Bacillus subtilis NRS-744 after 18 to 24 hrs by microbroth dilution method. It counts as functional.
Details: not given
Molecule `O=C(CSc1nnnn1-c1ccccc1)N/N=c1/scc(-c2ccc([N+](=O)[O-])cc2)n1-c1ccccc1` gave an MIC of 250 µg/mL (≈ 471 µM).
Still for that read-out and setting: then `COc1ccc(-c2cs/c(=N/NC(=O)CSc3nnnn3-c3ccccc3)n2-c2ccccc2)cc1`, with 500 µg/mL (≈ 970 µM); and `COc1ccc(-c2cs/c(=N/NC(=O)CSc3nnnn3C)n2-c2ccccc2)cc1`, with 250 µg/mL (≈ 551 µM).
The molecule `Cn1nnnc1SCC(=O)N/N=c1/scc(-c2ccc(F)cc2)n1-c1ccccc1` displayed an MIC of 250 µg/mL (≈ 566 µM).

The subject of another test is Micrococcus luteus. In words: Antimicrobial activity against Micrococcus luteus NRLL B-4375 after 18 to 24 hrs by microbroth dilution method. It counts as functional.
Details: not given
`O=C(CSc1nnnn1-c1ccccc1)N/N=c1/scc(-c2ccc([N+](=O)[O-])cc2)n1-c1ccccc1` displayed an MIC of 500 µg/mL (≈ 942 µM).
The same measure, in the same setting: then `COc1ccc(-c2cs/c(=N/NC(=O)CSc3nnnn3-c3ccccc3)n2-c2ccccc2)cc1`, with 125 µg/mL (≈ 242 µM); and `COc1ccc(-c2cs/c(=N/NC(=O)CSc3nnnn3C)n2-c2ccccc2)cc1`, with 250 µg/mL (≈ 551 µM).
Still for that read-out and setting: then `Cn1nnnc1SCC(=O)N/N=c1/scc(-c2ccc(F)cc2)n1-c1ccccc1`, with 250 µg/mL (≈ 566 µM).

Another test relates to Pseudomonas aeruginosa. In words: Antimicrobial activity against Pseudomonas aeruginosa […] after 18 to 24 hrs by microbroth dilution method. It counts as functional.
Details: not given
The molecule `O=C(CSc1nnnn1-c1ccccc1)N/N=c1/scc(-c2ccc([N+](=O)[O-])cc2)n1-c1ccccc1` displayed an MIC of 250 µg/mL (≈ 471 µM).
Same read-out and setting: in the case of `COc1ccc(-c2cs/c(=N/NC(=O)CSc3nnnn3-c3ccccc3)n2-c2ccccc2)cc1` it was 250 µg/mL (≈ 485 µM); in that of `COc1ccc(-c2cs/c(=N/NC(=O)CSc3nnnn3C)n2-c2ccccc2)cc1`, 250 µg/mL (≈ 551 µM); in that of `Cn1nnnc1SCC(=O)N/N=c1/scc(-c2ccc(F)cc2)n1-c1ccccc1`, 250 µg/mL (≈ 566 µM).

Another test deals with Escherichia coli. In words: Antimicrobial activity against Escherichia coli ATCC 25922 after 18 to 24 hrs by microbroth dilution method. It counts as functional.
Details: not given
`O=C(CSc1nnnn1-c1ccccc1)N/N=c1/scc(-c2ccc([N+](=O)[O-])cc2)n1-c1ccccc1` showed an MIC of 250 µg/mL (≈ 471 µM).
Regarding `COc1ccc(-c2cs/c(=N/NC(=O)CSc3nnnn3-c3ccccc3)n2-c2ccccc2)cc1`, the lowest concentration to inhibit growth (MIC) was 250 µg/mL (≈ 485 µM).
Still for that read-out and setting: then `COc1ccc(-c2cs/c(=N/NC(=O)CSc3nnnn3C)n2-c2ccccc2)cc1`, with 500 µg/mL (≈ 1100 µM).
Same read-out and setting: then `Cn1nnnc1SCC(=O)N/N=c1/scc(-c2ccc(F)cc2)n1-c1ccccc1`, with 125 µg/mL (≈ 283 µM).

A further test has as its system Listeria monocytogenes. In words: Antimicrobial activity against Listeria monocytogenes ATCC 7644 after 18 to 24 hrs by microbroth dilution method. Type of test: functional.
Details: not given
`O=C(CSc1nnnn1-c1ccccc1)N/N=c1/scc(-c2ccc([N+](=O)[O-])cc2)n1-c1ccccc1` registered a minimal inhibitory concentration (MIC) of 250 µg/mL (≈ 471 µM).
Same read-out and setting: in the case of `COc1ccc(-c2cs/c(=N/NC(=O)CSc3nnnn3-c3ccccc3)n2-c2ccccc2)cc1` it was 250 µg/mL (≈ 485 µM).
The same measure, in the same setting: in the case of `COc1ccc(-c2cs/c(=N/NC(=O)CSc3nnnn3C)n2-c2ccccc2)cc1` it was 250 µg/mL (≈ 551 µM); in that of `Cn1nnnc1SCC(=O)N/N=c1/scc(-c2ccc(F)cc2)n1-c1ccccc1`, 250 µg/mL (≈ 566 µM).

The next test deals with Staphylococcus aureus. As to the kind of experiment: Antimicrobial activity against Staphylococcus aureus NRRL B-767 after 18 to 24 hrs by microbroth dilution method. It counts as functional.
Details: not given
`O=C(CSc1nnnn1-c1ccccc1)N/N=c1/scc(-c2ccc([N+](=O)[O-])cc2)n1-c1ccccc1` registered an MIC of 250 µg/mL (≈ 471 µM).
`COc1ccc(-c2cs/c(=N/NC(=O)CSc3nnnn3-c3ccccc3)n2-c2ccccc2)cc1` showed an MIC of 250 µg/mL (≈ 485 µM).
The molecule `COc1ccc(-c2cs/c(=N/NC(=O)CSc3nnnn3C)n2-c2ccccc2)cc1` registered an MIC of 250 µg/mL (≈ 551 µM).
Still for that read-out and setting: then `Cn1nnnc1SCC(=O)N/N=c1/scc(-c2ccc(F)cc2)n1-c1ccccc1`, with 250 µg/mL (≈ 566 µM).

Values taken from ChEMBL document CHEMBL3124777, “Synthesis and biological evaluation of thiazoline derivatives as new antimicrobial and anticancer agents” (Eur J Med Chem, 2014).
